Experiments:
[1] = tested on: Glutag and NCI-H761 cells; test: Dose response of GLP-1 release at different glucose concentrations; format: cell-based; conditions: 5 mM glucose, 2 hours, percentage of vehicle control
Description: Panels A and B show results of dose response of GLP-1 release in different glucose concentration of 5 mM (panel A) and 10 mM (panel B). The dose response of GLP-1 released was normalised of number of cells measured in parallel. Glutag and […] cells were incubated with vehicle alone, oleoyl-LPI, OEA, LPC forskolin (10 μM) and PMA (1 μM) as positive control for 2 hours. Results were normalised as percentage of cell treated with vehicle (control). For panels A and B data are shown as means±SEM of n=3 from independent experiments performed in duplicates. Student t-test: *p<0.05, **P<0.01. Panel C show results of dose response of GLP-1 release in a glucose concentration of 20 mM.
Approximately 80,000 Glutag cells were plated in poly-L-lysine-coated 24-well culture plates and grown to about 80% confluence. NCI-H716 cells were seeded on growth factor reduced Matrigel™ (Becton Dickinson, Bedford, MA) in DMEM medium, supplemented with 10% FBS the day before the experiment. For NCI-H716 cells, approximately 25,000 cells were needed for this secretion experiment in order to have good stimulation with lower basal GLP-1 secretion. In brief, Glutag and NCI-H716 cells were washed twice and then incubated for 2 h with FBS-free DMEM containing 1% (M:C) alone (negative control), 10 μM forskolin as positive control (Sigma-Aldrich), or with different concentrations of Oleoyl-LPI. M:C was used as a solvent to prepare stock solutions of fatty acid derivatives and inhibitors. For secretion experiments, medium and cells were collected separately.
To determine the effect of glucose in oleoyl-LPI induced GLP-1 secretion, the inventors conducted dose-response experiment in the presence of 5 mM and 10 mM glucose in the secretion medium with the results outlined in FIG. 2A and FIG. 2B.

[2] = tested on: primary culture of mixed colonic preparations; test: GLP-1 secretion by mixed primary colonic culture; format: cell-based, mice
Text: Mice were euthanized, and 5 cm of colon were used for isolation of epithelial cells following as previously described by Reimann, F., Habib, A. M., Tolhurst, G., Parker, H. E., Rogers, G. J., & Gribble, F. M. (2008), Cell Metabolism, Vol 8(6), pp 532-539, the disclosure of which is incorporated herein by reference in its entirety. Briefly, colon segments were dissected from 10 week-old C57BL/6 male mice. Segments were cut open longitudinally and washed quickly in DMEM (serum-free) to remove luminal contents. Colon was chopped into about 1-2 mm pieces and digested with about 0.5 mg/ml collagenase-P for 15 min. Resulting cell suspensions were filtered through 70 μm nylon cell strainers (BD Falcon, UK), centrifuged at 300 g for 5 min, and pellets re-suspended in DMEM supplemented with 10% FBS. The purified cells were collected and cultured on 24-well Matrigel-coated plates at 37° C. in DMEM (25 mM glucose), 10% FBS, 2 mM L-glutamine, 1% penicillin/streptomycin. On the day of GLP-1 assay, cells were washed twice with PBS, and then treated with LPI or vehicle Methanol: Chloroform, (M:C), v/v for 2 h at 37° C. Supernatants were collected for GLP-1 quantification using the active GLP-1 ELISA kit from Millipore. […]

CREB = CREB phosphorylation by Western blot; format: cell-based; conditions: H89 10 μM pre-treatment or oleoyl-LPI in control cells
Description: When cell cultures reached 80-90%, media were removed and cells were washed twice with 1×PBS. The cells were lysed in 150 μl (for one well of a 6 well plate) of Triton X-100 lysis buffer, containing phosphatase inhibitor cocktail (1:1000) (Sigma Aldrich, UK) and protease inhibitor (1:1000, Sigma Aldrich, UK). Cells were detached with scrapers and lysate were collected and centrifuged at 10,000 rpm, 4° C. for 5 minutes. The supernatant was then transferred to a 1.5 ml microcentrifuge tube and used for protein quantification. Cell lysates were stored at −20° C. for longer storage. All lysates were prepared on ice.
Non-specific antibody binding was prevented by incubating the nitrocellulose membrane in 5% milk in PBS-0.05% Tween-20 (v/v) for 30 minutes on a rotating plate. The membrane was then washed in PBS-0.05% Tween-20 (v/v) and then incubated with the primary antibody diluted in PBS-0.05% Tween-20 (v/v) on a rotating plate overnight at 4° C. After 24 hours, the membrane was washed 5× for 5 minutes with PBS-0.05% Tween-20 (v/v), and then incubated on a rotating plate with the appropriate secondary antibody for 1 hour at room temperature. […]

Substance: oleoyl-lysophosphatidylinositol [oleoyl-LPI]
- GLP-1 secretion ([1]; 10 μM): 126±8%
- GLP-1 secretion ([1]; 20 μM): 223±23%
- GLP-1 secretion ([1]; 50 μM): 333±45%
- GLP-1 release ([2]; GPR119−/− mice compared to wild type control): unable to induce GLP-1 release
- GLP-1 levels, from the basal secretion ([2]; wild type mice, two hours treatment): 131±32%
- phosphorylation of CREB (CREB): able to stimulate CREB phosphorylation

— US12503426B2, “Synthetic derivatives of oleoyl-lysophosphatidylinositol (oleoyl-LPI) and uses thereof” (LIPOVEXA SRL, priority 2017, dated 2025)
